These results are taken from a melting point compilation (Tetko et al.; mined from patent text by program, amines drawn as free bases though some values may be those of a salt).

Where only a bound is given, the exact number is not on record here.

As a reminder, the melting point is the temperature, or range, at which the solid turns liquid. In turn, `COc1ccc2cc(C(=O)C(C)(C)c3ccccc3)oc2c1` gave a melting point of 93 to 95 °C.
In the case of `ON=C(c1cccs1)c1cccc2nc(N[C@@H]3CCc4ccccc43)ccc12`, the melting point amounted to 180 °C.
In turn, `CCCc1cc(F)c(C(=O)O)cc1O` registered a melting point of 134 to 136 °C.
In turn, `Cc1c(F)c(N2CCNC(C)C2)cc2c1C(=O)CCN2C1CC1` (centres undefined) displayed a melting point of 98 to 100 °C.
The result for `CC(=O)NS(=O)(=O)c1ccc(C2=C(c3cccc(F)c3)C(=O)C(C)(C)O2)cc1` reads 178 to 179 °C; that for `CN1CC(C)(CCCl)Oc2ncccc2C1=S` (centres undefined), 119 to 121 °C.
The result for `Cc1noc(-c2cc3c4ccccc4n(CCCCl)c3cn2)n1` reads 180 to 185 °C; that for `CCN(CC)c1nc2cc(-c3ccccc3C#N)ccc2[nH]1`, 138 to 142 °C.
As for `CCCc1nn(C)c2c(Oc3ccc(F)cc3)nc(-c3ccccc3)nc12`, the figure is 126 to 128 °C; as for `C[C@H](NC(=O)OC(C)(C)C)[C@@H]1CCN(c2nc3c(cc2F)c(=O)n(N)c(=O)n3C2CC2)C1`, 175 to 177 °C; as for `O=S(=O)(C1=Cc2ccccc2C1)c1ccc(O)cc1`, 209 to 210 °C.
Regarding `CC1COC(c2ccccc2)(c2ccc(N)c([N+](=O)[O-])c2)O1` (centres undefined), the melting point was found to be 155 °C.
As for `COCNC(=O)OC(C(Oc1ccc(-c2ccccc2)cc1)n1cncn1)C(C)(C)C` (centres undefined), the figure is 95 to 98 °C.
As for `COc1cc2c(cc1[N+](=O)[O-])N(C)C(=O)CNC2`, the figure is 145 to 149 °C; as for `CC(C)(C)c1ccc(-c2ccc(-c3ccc(Br)s3)s2)cc1`, 132 to 136 °C.
Take `COc1ccc(C=NO)cc1C`: the melting point lay within 70 to 72 °C.
The result for `CC(=O)OCC(=O)Nc1cc(C#N)cc(NC(=O)COC(C)=O)c1Cl` reads 193 to 195 °C; that for `COc1ccc(-c2c(Cl)c(CCl)nc3sc4c(c23)CCN(Cc2ccccc2)C4)cc1`, 194 to 195 °C; that for `CC(C)(C)c1ccc([C@@H]2C[C@H]3C=C(c4c[nH]c(-c5ccc(F)c(F)c5)c4-c4ccncc4)CCN3C2)cc1`, 218 to 220 °C.
`O=C(O)c1ccc(Cc2ccc([N+](=O)[O-])cc2)cn1`: the melting point lay in the range of 178 to 182 °C.
As for `C1=C2NCCCN2C(c2ccccc2)c2ccccc2C1` (centres undefined), the melting point was 138 to 141 °C.
The result for `CC(c1ccc(F)cc1)n1ncc(-c2ccc(S(C)(=O)=O)cc2)c(-c2ccc(F)cc2)c1=O` (centres undefined) reads 162 to 164 °C; that for `O=C1CCC(N2Cc3c(OCc4ccc(CN5CCOCC5)c(F)c4)cccc3C2=O)C(=O)N1` (centres undefined), 263 to 265 °C.
As for `CC(C)(C)Cc1c(CC(C)(C)C(=O)O)n(Cc2ccc(Cl)cc2)c2ccc(OCc3ccc4sccc4n3)cc12`, the figure is 187 to 188 °C; as for `O=[N+]([O-])c1cccc(OCCc2c[nH]cn2)c1`, 174 to 178 °C; as for `CCN(SCc1nccs1)C(=C[N+](=O)[O-])SC`, 63 to 64 °C.
As for `COc1cc(-c2ccc(N)cc2C(=O)NCCNC(=O)c2cc(N)ccc2-c2cc(OC)c(OC)c(OC)c2)cc(OC)c1OC`, the figure is > 250 °C; as for `O=C(CCCN1CCOCC1)c1ccc2c(c1)Cc1cc(C(=O)CCCN3CCOCC3)ccc1O2`, 110 to 112 °C; as for `CCCc1ccnc(C(N)=O)c1N`, 139 to 141 °C.
For `CCC#CCOc1cc(C=O)ccc1OC`, the melting point is 38 to 39 °C.
The result for `N#Cc1ccc(C(=O)N2CCC[C@H]2C(=O)O)cc1` reads 80 to 85 °C.
As for `Cc1cccc(C)c1NC(=O)CCS(=O)(=O)c1cc(C(C)(C)C)c(O)c(C(C)(C)C)c1`, the melting point is 218 to 219 °C.
The result for `CC(C)(O)Cn1c(CCO)nc2c(N)nc3cccnc3c21` reads 194 to 195 °C; that for `CCCCCCCCCCOC(=O)C1CCC(=O)N1` (centres undefined), 34 to 35 °C.
With `CS(=O)(=O)c1ccc(-c2cnn(CC(F)(F)F)c(=O)c2Cl)cc1`, the melting point was in the range of 221 to 222 °C.
`CN(C)CCc1[nH]c2ccccc2c1CC(C#N)(c1ccccc1)c1ccccc1` returned a melting point of 181 to 185 °C.
As for `CCOc1cc(Cn2cc(CCC(=O)O)c(-c3ccccc3)c2)cc(OCc2csc(-c3ccccc3)n2)c1`, the figure is 109 to 110 °C; as for `C=C(C)C(=O)Oc1cc(C(=O)OCC)cc(O)c1O`, 106 to 108 °C; as for `O=C(Nc1nc[nH]n1)c1ccc(-c2ccc3nnn(Cc4ccc5ncccc5c4)c3n2)cc1F`, 265 to 267 °C.
The result for `CS(=O)(=O)OCCCCCCNc1ccc2nncn2n1` reads 103 to 105 °C.
As for `COc1cccc(Cc2cc(-c3ccccc3)c(-c3ccccc3)s2)c1`, the figure is 100 to 102 °C; as for `O=C(Oc1ccccc1)N1CC[C@@H](c2ccc(F)cc2)[C@H](CO)C1` (relative stereo), 129 to 131 °C; as for `NC(=O)N1C(=O)C(=C(OC(=O)COCc2ccccc2)c2cccs2)c2cc(F)c(Cl)cc21`, 150 to 175 °C.
`CS(=O)(=O)c1ccc(-c2nc(=O)c3ccccc3s2)cn1` showed a melting point of 205 to 207 °C.
Turning to `CN1Cc2c(C(N)=O)ncn2-c2ccc(F)c(Cl)c2C1=O`, the melting point lay in the range of 292 to 294 °C.
As for `Cc1c(C(=O)O)c(=O)cc(-c2ccccc2)n1C`, the figure is 220 to 225 °C; as for `Cc1cc(=O)oc2cc(NCc3ccccc3)ccc12`, 174 to 176 °C; as for `Cc1cc(SC2=C(O)CC(CCc3cccc(O)c3)(CCc3cccc(O)c3)OC2=O)c(C(C)(C)C)cc1CO`, 92 to 94 °C.
As for `CCN(CC)c1nc(C(C)(C)C)nn1-c1c([N+](=O)[O-])cc(C(F)(F)F)cc1[N+](=O)[O-]`, the figure is 64 to 65 °C; as for `CC(=O)NC(Cc1ccccc1)C(C)=O` (centres undefined), 96 to 97 °C; as for `CCNc1nc(C#N)c(C#N)nc1-c1cccc(Br)c1`, 127 to 128 °C.
`CCC(=O)N1N=C(c2ccc(N)cc2)c2cc(Cl)ccc2CC1C` (centres undefined) returned a melting point of 118 to 120 °C.
In turn, `CSc1cc(=O)c2ccc(F)cc2s1` showed a melting point of 120 to 121 °C.
`COc1ccc2c(c1)[C@@H](O)[C@H](CN1CCC3(CC1)C(=O)NCN3c1ccccc1)CC2` (relative stereo) displayed a melting point of 216 to 218 °C.
The result for `CC(C)Cc1nc2c(N)nc3ccccc3c2n1CCOc1ccccc1` reads 177 to 178 °C; that for `CC(C)(C)C(=O)NC#N`, 112 to 118 °C; that for `CN(C)c1cc(CC(C#N)CNc2ccccc2)cc(N(C)C)c1N(C)C` (centres undefined), 179 to 181 °C.
Compound `O=C1C=C(NC(=O)C(=O)c2cn(Cc3c(F)c(F)c(F)c(F)c3F)c3ccccc23)CO1` displayed a melting point of 280 to 282 °C.
As for `COc1cc(C2(C#N)CC2)ccc1OCc1ccccc1`, the figure is 84 °C.
The result for `O=C1CCC(CN2C(=O)C3(COc4cc5c(cc43)CCO5)c3ccccc32)N1` (centres undefined) reads 133 to 136 °C.
The result for `Nc1nc(-c2ccncc2)nc2c1c(Cl)nn2C1CCCC1` reads 132 to 134 °C.
`C=Cn1cc(C(=O)O)c(=O)c2cc(F)c(Cl)cc21` yielded a melting point of 210 °C.
Consider `Cc1c(S(C)(=O)=O)cc(C(C)(C)C)c(O)c1C(=O)Nc1ccc(S(=O)(=O)C(F)(F)F)cc1Cl`, for which the melting point was in the range of 220 to 221 °C.
The compound `CCOC(=O)CN1C(=O)COc2cc(F)ccc21` showed a melting point of 90 to 91.5 °C.
The result for `CCCCOC(=O)c1cnc(C(=O)O)c(OC)c1` reads 96 to 98 °C; that for `CNCCCNC(=O)[C@@H]1CCCN1S(=O)(=O)c1ccc(Cl)c(COc2cccc3c(C)cc(C)nc23)c1Cl`, 85 °C; that for `CN1Cc2c(/C=C\Cl)ncn2-c2cccc(Cl)c2C1=O`, 205 to 207 °C.
The result for `CCC1CCC(=O)C=C1c1ccc(OCC(=O)O)c(Cl)c1Cl` (centres undefined) reads 164 to 165 °C.
As for `CC12CCC3c4ccc(C(=O)O)cc4CCC3C1CCC2C(=O)CCc1ccc(F)cc1` (centres undefined), the figure is 224 to 227 °C.
In turn, `CCOC(=O)c1nc(-c2ccc(C(C)(C)C)cc2)[nH]c1-c1ccc([N+](=O)[O-])cc1` came in with a melting point of 190 to 191 °C.
The result for `CCN(CC)C(=O)OCC1CN(C(=S)c2cc(OC)c(OC)c(OC)c2)CCN1C(=O)c1cc(OC)c(OC)c(OC)c1` (centres undefined) reads 106 °C; that for `CC(C)c1nc(C#N)c(C#N)[nH]1`, 146 to 149 °C; that for `CC(C)CCN1C(=O)C(NC(=O)Oc2ccccc2)C(=O)N(c2ccccc2)c2ccccc21` (centres undefined), 70 °C.
`COC(=O)c1cc(F)c(N2CCN(C(C)=O)CC2)nc1Nc1ccc(F)cc1F` came in with a melting point of 172 to 173 °C.
The result for `CN1Cc2c(C#CC(C)(C)O)ncn2-c2ccccc2C1=O` reads 168 to 169 °C; that for `COc1cc(C)nc(NC(=O)NS(=O)(=O)c2ccccc2N=NN(C)C)n1`, 158 to 160 °C.
As to `CS(=O)c1ccc(-n2cnc3ccc(-c4nnc(CC(F)(F)F)o4)cc32)cc1` (centres undefined), the melting point lay in the range of 184 to 185 °C.
For `CCCCn1c(=O)c2c(cnn2S(=O)(=O)CC)n(CCCC)c1=O`, the melting point was in the range of 119 to 121 °C.
The result for `CCCC1CCC2C3CCc4cc(O)ccc4C3CCC12C` (centres undefined) reads 130 to 131 °C; that for `CC(=O)c1ccc(Nc2cccc(-c3cnc(N)nc3)c2)c(N)c1`, 228 to 230 °C.
The result for `O=C(NO)C1(S(=O)(=O)c2ccc(OCC#CCN3CCOCC3)cc2)CCN(Cc2ccc(Br)cc2)CC1` reads 94 °C.
As for `COc1c(N=[N+]=[N-])ccnc1C#N`, the melting point was found to be 102 °C.
As for `Brc1nsc2nc3ccccc3n12`, the figure is 189 to 190 °C.
`CN(C(=O)C(F)(F)F)c1cnc(-c2cncc(F)c2)s1`: the melting point fell in the range of 168 to 170 °C.
As for `Cc1ccc2c(c1)c(=O)[nH]c1c2c2ccccc2n1C`, the figure is > 310 °C; as for `OCC1Cc2cc(F)cc(Br)c2O1` (centres undefined), 53 to 57 °C.
The result for `O=C(NCc1cccs1)[C@@H]1CCCN(c2cccc3c2C(=O)N(Cc2ccncc2)C3=O)C1` reads 193 to 194 °C; that for `CN(C)N=Nc1ccsc1C(=O)O`, 108 to 110 °C.
As for `OCc1ccc2ccccc2c1OCc1ccccc1`, the figure is 85 to 87 °C.
